Data published in US4285940A, “Cephalosporin derivatives, and antibacterial drugs comprising said derivatives” (Eisai Co., Ltd., priority 1979, dated 1981).

Columns and labels:
Escherichia coli NIHJ = test: MIC by standard agar dilution method of the Japan Society of Chemotherapy; format: cell-based; details: Mueller Hinton agar, 18 hours at 37° C., Examples 1, 2, 4 as sodium salts, Example 5 as free acid
Protocol: (§1) Minimal inhibitory concentration (MIC) was determined by the standard agar dilution method of the Japan Society of Chemotherapy.
(§2) The compounds described in Examples 1, 2 and 4 were dissolved in sterilized water; the compound described in Example 5 was dissolved in acetone-water (1:1); and the control compound, cephaloglycin, was dissolved in a 3% sodium hydrogen carbonate solution.
(§3) Serial two-fold dilutions were made from the above solutions.
(§4) One-ml aliquots of each dilution were mixed with 9 ml of Mueller Hinton agar in petri-dishes to make agar plates containing the compound at serially diluted concentrations. After agar hardened, plates were put in an incubator at 37° C. for 1.5-2 hours with the lids slightly open to evaporate acetone off the plates.
(§5) Test organisms were grown for 18 hours at 37° C. in Trypticase Soy broth and diluted in saline to approximately 10^6 colony forming units per ml. A loopful of each cell suspension was applied on the agar plate mentioned above and the plates were incubated for 18 hours at 37° C. before MIC was determined.
(§6) MIC values of the compounds described in Examples 1, 2 and 4 were determined as their sodium salts and the compound described in Example 5 was determined as a free carboxylic acid.

[1] = tested on: Klebsiella pneumoniae EK-6; test: as above; format: cell-based; details: EK6, Mueller Hinton agar, 18 hours at 37° C., Examples 1, 2, 4 as sodium salts, Example 5 as free acid
Protocol: as §1, §2, §3, §4, §5, §6

Proteus morganii EP-14 = test: as above; format: cell-based; details: Morganella morganii, EP14, Mueller Hinton agar, 18 hours at 37° C., Examples 1, 2, 4 as sodium salts, Example 5 as free acid
Protocol: as §1, §2, §3, §4, §5, §6

[2] = tested on: Pseudomonas aeruginosa EP-172; test: as above; format: cell-based; details: EP172, Mueller Hinton agar, 18 hours at 37° C., Examples 1, 2, 4 as sodium salts, Example 5 as free acid
Protocol: as §1, §2, §3, §4, §5, §6

[3] = tested on: Serratia marcescens ES-75; test: as above; format: cell-based; details: ES75, Mueller Hinton agar, 18 hours at 37° C., Examples 1, 2, 4 as sodium salts, Example 5 as free acid
Protocol: as §1, §2, §3, §4, §5, §6

[4] = tested on: Staphylococcus aureus 209P; test: as above; format: cell-based; details: Mueller Hinton agar, 18 hours at 37° C., Examples 1, 2, 4 as sodium salts, Example 5 as free acid
Protocol: as §1, §2, §3, §4, §5, §6

[5] = acute toxicity (mouse, oral administration); details: in vivo

| Structure (SMILES) | MIC (Escherichia coli NIHJ) [µg/mL] | MIC [1] [µg/mL] | MIC (Proteus morganii EP-14) [µg/mL] | MIC [2] [µg/mL] | MIC [3] [µg/mL] | MIC [4] [µg/mL] | LD50 [5] [mg/kg] |
| --- | --- | --- | --- | --- | --- | --- | --- |
| CC(=O)OCC1=C(C(=O)O)N2C(=O)[C@@H](NC(=O)[C@H](N)c3ccccc3)[C@H]2SC1 [Cephaloglycin, cephaloglycin, reference compound] | 3.13 | 1.56 | 25 | 100 | 100 | 0.8 |  |
| CC(=O)OCC1=C(C(=O)O)N2C(=O)[C@@H](NC(=O)[C@H](NC(=O)c3coc4cc(O)c(O)cc4c3=O)c3ccc(O)cc3)[C@H]2SC1 [Example 1, 7β-[D-2-(6,7-Dihydroxychromone-3-carboxamido)-2-(4-hydroxyphenyl)acetamido]-3-acetoxymethyl-3-cephem-4-carboxylic acid] | 3.13 | 0.2 | 50 | 3.13 | 3.13 | 3.13 | > 5000 |
| CC(=O)OCC1=C(C(=O)O)N2C(=O)[C@@H](NC(=O)[C@H](NC(=O)c3coc4cc(OC(C)=O)c(OC(C)=O)cc4c3=O)c3ccc(O)cc3)[C@H]2SC1 [Example 2, 7β-[D-2-(6,7-Diacetoxychromone-3-carboxamido)-2-(4-hydroxyphenyl)acetamido]-3-acetoxymethyl-3-cephem-4-carboxylic acid] | 12.5 | 0.2 | 100 | 3.13 | 6.25 | 6.25 | > 5000 |
| CC(=O)OCC1=C(C(=O)O)N2C(=O)[C@@H](NC(=O)[C@H](NC(=O)c3coc4c(O)c(O)ccc4c3=O)c3ccc(O)cc3)[C@H]2SC1 [Example 4, 7β-[D-2-(7,8-Dihydroxychromone-3-carboxamido)-2-(4-hydroxyphenyl)acetamido]-3-acetoxymethyl-3-cephem-4-carboxylic acid] | 12.5 | 0.2 | 100 | 1.56 | 100 | 0.8 |  |
| CC(=O)OCC1=C(C(=O)O)N2C(=O)[C@@H](NC(=O)[C@H](NC(=O)c3coc4c(OC(C)=O)c(OC(C)=O)ccc4c3=O)c3ccc(O)cc3)[C@H]2SC1 [Example 5, 7β-[D-2-(7,8-Diacetoxychromone-3-carboxamido)-2-(4-hydroxyphenyl)acetamido]-3-acetoxymethyl-3-cephem-4-carboxylic acid] | 3.13 | 0.4 | 25 | 3.13 | 25 | 6.25 |  |
